Test [1] deals with Delta-type opioid receptor (Rattus norvegicus) (UniProt P33533). Nature of the test: Agonist activity at rat delta opioid receptor expressed in C6 cells assessed as stimulation of [35S]GTP-gamma-S binding relative to BW373U86. It counts as functional, cell-based.
For test [2] the target is unchanged. Nature of the test: Displacement of [3H]naltrindole from rat delta opioid receptor expressed in C6 cells. It counts as cell-based.

Square brackets hold non-standard residues; d marks the D form. Peptide text beside a SMILES is read from it. * marks the point of attachment. Tyr(Nα,Nα-allyl2) = C=CCN(CC=C)[C@@H](Cc1ccc(O)cc1)C(=O)*; Aib = CC(C)(N)C(=O)O

Sequence of Delta-type opioid receptor (Rattus norvegicus) (P33533 whole entry): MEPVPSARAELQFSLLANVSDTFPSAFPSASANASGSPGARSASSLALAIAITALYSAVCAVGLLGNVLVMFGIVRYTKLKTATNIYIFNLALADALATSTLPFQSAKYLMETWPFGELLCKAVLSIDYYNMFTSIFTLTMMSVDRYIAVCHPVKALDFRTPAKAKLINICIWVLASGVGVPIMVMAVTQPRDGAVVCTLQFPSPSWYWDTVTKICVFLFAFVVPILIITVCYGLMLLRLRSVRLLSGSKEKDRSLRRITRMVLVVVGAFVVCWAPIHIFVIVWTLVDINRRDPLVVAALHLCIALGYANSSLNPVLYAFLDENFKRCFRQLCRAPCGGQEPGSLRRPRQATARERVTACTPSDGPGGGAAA

Turning to `Oc1ccc2c3c1O[C@H]1c4[nH]c5ccccc5c4C[C@@]4(O)[C@@H](C2)N(CC2CC2)CC[C@]314`, the Activity in test [1] came to 0.

For the compound `CC(C)C[C@H](NC(=O)[C@H](Cc1ccccc1)NC(=O)CNC(=O)[C@@H](CO)NC(=O)[C@@H](N)Cc1ccc(O)cc1)C(=O)N[C@H](C(=O)O)[C@@H](C)O`, the Activity was 93 nM in test [2] and 0.9 in test [1]. As to `CN1CC[C@]23c4c5ccc(O)c4O[C@H]2C(=O)C2(Cc4ccccc4C2)C[C@@]3(O)[C@H]1C5`, the Activity in test [2] turned out to be 8.4 nM; in test [1], 0.18. In the case of `CN1CC[C@]23c4c5ccc(O)c4O[C@H]2c2[nH]c4ccccc4c2C[C@@]3(O)[C@H]1C5`, the values for the Activity in test [2] and in test [1] were 6.5 nM and 0.12, respectively. Regarding `O=C1/C(=C/c2ccccc2)C[C@@]2(O)[C@H]3Cc4ccc(O)c5c4[C@@]2(CCN3CC2CC2)[C@H]1O5`, in test [2], the Activity was determined as 0.079 nM.

With `CC1(C)SSC(C)(C)C(NC(=O)[C@@H](N)Cc2ccc(O)cc2)C(=O)NCC(=O)N[C@@H](Cc2ccc(Cl)cc2)C(=O)NC1C(=O)O` (stereo in doubt), the Activity in test [2] came to 135 nM; in test [1], 0.8.

As to `C=CCN1C[C@H](C)N([C@H](c2ccc(C(=O)N(CC)CC)cc2)c2cccc(OC)c2)C[C@H]1C`, the Activity in test [2] came out at 60 nM; in test [1] it was 1.02. For the compound `C=CCN1C[C@H](C)N([C@H](c2ccc(C(=O)N(CC)CC)cc2)c2cccc(O)c2)C[C@H]1C`, the Activity in test [2] came to 0.45 nM. With `CC(C)[C@H](NC(=O)[C@H](CC(=O)O)NC(=O)[C@H](Cc1ccccc1)NC(=O)[C@@H](C)NC(=O)[C@@H](N)Cc1ccc(O)cc1)C(=O)N[C@H](C(=O)NCC(N)=O)C(C)C`, the Activity in test [2] is 81 nM; in test [1] it was 0.59. In the case of `C=CCN(CC=C)[C@@H](Cc1ccc(O)cc1)C(=O)NC(C)(C)C(=O)NC(C)(C)C(=O)N[C@@H](Cc1ccccc1)C(=O)N[C@@H](CC(C)C)C(=O)O` ({Tyr(Nα,Nα-allyl2)}-[Aib][Aib]FL-OH), the Activity in test [2] was determined as 37 nM; in test [1], 0. `Oc1ccc2c3c1O[C@H]1c4oc5ccccc5c4C[C@@]4(O)[C@@H](C2)N(CC2CC2)CC[C@]314` displayed an Activity in test [2] of 0.037 nM.

For the origin of these results see ChEMBL document CHEMBL1140619.
